Two compounds from US9265741B2, “Molecules to perfect HbA1c levels” (Neville Pharmaceutical, Inc., priority 2011, dated 2016) can be followed below.

Data set [1] in a line: Safety test in human volunteers. It counts as in vivo. The conditions noted are these: clinically prescribed doses. The text has this: Methyl pyruvate performs as a lipophilic antisense-like bullet that penetrates cell membranes, mitochondrial membranes and nuclear membranes with its active and passive delivery of energy via protons, adenosine triphosphate manufacture (ATP) and methylation. This energy delivering metabolic bullet upregulates all cytosolic and nuclear capabilities. It can even negate messenger RNA (mRNA) expression. Now, because of instant protons and pyruvate delivered, there is immediately empowered glycolysis and/or CAC production of ATP and the cell functions with more efficient performance. Through this newly available energy, gene silencing can be reversed, repairs completed, apoptosis performed, and the cell is upgraded and/or divides (cell partitioning) into a new and improved cell having shed its prior oxidative cellular/genetic debris. In DM this means improved Glut4 networking, improved insulin sensitivity, increased intra and intercellular networking and increased superoxide dismutase (SOD) production. Further, due to MP, many nutrients and complicit molecules including peroxisome proliferator-activator receptor (Ppars) will now function more effectively and efficiently, i.e. as infused and increased cellular energy can now affect niacinamide (B3) and nicotinamide adenine dinucleotide (NAD) at an intracellular level that enables and protects beta cell function. […]

Data set [2] has as its system HbA1c. Kind of data set: Twelve patients with DM took MP for three months; HbA1c measured. In kind it is in vivo, human. The text has this:
Twelve patients with DM, including a juvenile diabetic, took two (2) grams of MP in water two (2) times per day for three (3) months without any other lifestyle change. The average decrease of HbA1c was one percent (1%). (The group average HbA1c diminished from 7.5% to 6.5% during the course of three (3) months of treatment.)

Data set [3] deals with pancreatic rat islet cells. Nature of the data set: MP instilled into pancreatic rat islet cells; insulin manufacture. The note with it: pancreatic rat islet cells (animal model), several studies. In kind it is cell-based. From the text: The methyl pyruvate molecule and certain of these molecular analogues are lipophilic antisense-like permeants, each of which holds onto its own membrane penetrability as well as acting collectively to produce a timed release delivery within the inner mitochondria. The combinational synergy can be different than each effect individually. […] This up regulation is key for enhanced utilization and regulation of glucose transport. MP closes potassium channels and opens calcium channels (via aquaporin generation) allowing a more favorable cellular milieu (increases cytosolic pH) that increases CAC productivity via our delivered MP (as pyruvate), as well as the now utilizable glucose. The use of MP and/or EP as energy molecules allows gene silenced and disabled near-apoptotic cells to proceed logically/genomically to a more idealized homeostatic state for the organism. The invention represents a method for genomic self-regulation of HbA1c.
MP instilled into pancreatic rat islet cells enable upregulation of insulin manufacture six-fold in several studies. The measured Jurkat current is countered and neutralized by MP's proton impedance enhancing its later provocation in increased insulin manufacture.

As to `CCOC(=O)C(C)=O` [EP, ethyl pyruvate], the “safety in human volunteers” value in data set [1] is on record as “safe”.
For `COC(=O)C(C)=O` [MP, methyl pyruvate], in data set [2] (2 grams of MP in water 2 times per day for 3 months, no other lifestyle change), the “average decrease of HbA1c” value worked out at 1%. Moreover, in data set [2] (after 3 months of 2 grams of MP in water 2 times per day), the “group average HbA1c after treatment” value was determined as 6.5%. Moreover, the “group average HbA1c before treatment” value in data set [2] (start of treatment (baseline)) was 7.5%. In data set [1], the “safety in human volunteers” value was “safe”. Besides, the “upregulation of insulin manufacture” value in data set [3] is recorded as “six-fold”.
